Assay results published in patent US5665721A, “Heterocyclic substituted cyclopentane compounds” (Abbott Laboratories, priority 1995, dated 1997).

Biological target: adenosine kinase (Homo sapiens, UniProt P55263)
Assay: In vitro inhibition of adenosine kinase activity
Type: biochemical
Details: Table 1, in vitro
Source text: The adenosine kinase to be inhibited can be located in vitro, in situ or in vivo. Where the adenosine kinase is located in vitro, adenosine kinase is contacted with the inhibitor compound, typically by adding the compound to an aqueous solution containing the enzyme, radiolabeled substrate adenosine, magnesium chloride and ATP. The enzyme can exist in intact cells or in isolated subcellular fractions containing the enzyme. The enzyme is then maintained in the presence of the inhibitor for a period of time and under suitable physiological conditions. Means for determining maintained times are well known in the art and depend inter alia on the concentrations of enzyme and the physiological conditions. Suitable physiological conditions are those necessary to maintain adenosine kinase viability and include temperature, acidity, tonicity and the like. Inhibition of adenosine kinase can be performed, by example, according to standard procedures well known in the art (Yamada et at., Comp. Biochem. Physiol. 1982, 71B: 367-372).
In vitro adenosine kinase activity can be measured using any of the standard procedures well known in the art. By way of example, cells containing adenosine kinase, such as IMR-32 human neuroblastoma cells, are cultured in the presence and absence of an inhibitor. Inhibition is measured as the ability to inhibit phosphorylation of endogenous or externally applied ^14 C-adenosine by these cells. The cells can be intact or broken. The specificity of adenosine kinase inhibitory activity is determined by studying the effects of inhibitors on adenosine A1 and A2a receptor binding, adenosine deaminase activity and adenosine transport.
Numerous inhibitor compounds of the present invention were tested in vitro and found to inhibit adenosine kinase activity. The results of some representative studies are shown below in Tables 1 and 2.

Sequence of adenosine kinase (Homo sapiens, UniProt P55263) (P55263 whole entry, species assumed): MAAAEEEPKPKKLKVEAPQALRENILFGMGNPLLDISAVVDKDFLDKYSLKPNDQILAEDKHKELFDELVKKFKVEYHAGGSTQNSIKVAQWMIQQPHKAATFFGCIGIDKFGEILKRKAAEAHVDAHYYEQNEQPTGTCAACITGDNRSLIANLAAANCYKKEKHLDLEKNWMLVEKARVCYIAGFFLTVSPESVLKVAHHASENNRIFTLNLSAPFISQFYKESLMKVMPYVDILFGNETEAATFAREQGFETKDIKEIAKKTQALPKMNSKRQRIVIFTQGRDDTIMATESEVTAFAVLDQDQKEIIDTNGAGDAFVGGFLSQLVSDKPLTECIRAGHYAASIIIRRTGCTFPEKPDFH

SMILES | IC50
Nc1ncnc2c1c(-c1ccccc1)cn2[C@@H]1C[C@H](O)[C@@H](O)[C@H]1O [drawing 13 (R5=NH2, R6=Ph), N7-((1'R,2'S,3'R,4'S)-2',3',4'-trihydroxycyclopentyl)-4-amino-5-phenyl-pyrrolopyrimidine] | 200 nM
CC(C)(C)OC(=O)N(C(=O)OC(C)(C)C)[C@H]1C[C@@H](n2cc(I)c3c(Cl)ncnc32)[C@H](O)[C@@H]1O [drawing 14 (R4=Boc2N, R5=Cl, R6=I), N7-((1'R,2'S,3'R,4'S)-2',3'-dihydroxy-4'-(bis-t-butoxycarbonylamino)-cyclopentyl)-4-chloro-5-iodo pyrrolopyrimidine] | > 1000 nM
CC(C)(C)OC(=O)N[C@H]1C[C@@H](n2cc(I)c3c(N)ncnc32)[C@H](O)[C@@H]1O [drawing 14 (R4=NHBoc, R5=NH2, R6=I), N7-((1'R,2'S,3'R,4'S)-2',3'-dihydroxy-4'-(t-butoxycarbonylamino)-cyclopentyl)-4-amino-5-iodo-pyrrolopyrimidine] | 15 nM
O[C@@H]1[C@H](O)[C@@H](O)C[C@H]1n1cc(-c2ccccc2)c2c(Cl)ncnc21 [drawing 13 (R5=Cl, R6=Ph), N7-((1'R,2'S,3'R,4'S)-2',3',4'-trihydroxycyclopentyl)-4-chloro-5-phenyl-pyrrolopyrimidine] | 45 nM
O[C@@H]1[C@H](O)[C@@H](O)C[C@H]1n1cc(C#Cc2ccccc2)c2c(Cl)ncnc21 [drawing 13 (R5=Cl, R6=PhCC), N7-((1'R,2'S,3'R,4'S)-2',3',4'-trihydroxycyclopentyl)-4-chloro-5-phenylacetylenyl-pyrrolopyrimidine] | 100 nM
Nc1ncnc2c1c(CCc1ccccc1)cn2[C@@H]1C[C@H](O)[C@@H](O)[C@H]1O [drawing 13 (R5=NH2, R6=PhCH2CH2), N7-((1'R,2'S,3'R,4'S)-2',3',4'-trihydroxycyclopentyl)-4-amino-5-((2phenyl)ethyl)-pyrrolopyrimidine] | 300 nM
N[C@H]1C[C@@H](n2cc(I)c3c(Cl)ncnc32)[C@H](O)[C@@H]1O [drawing 14 (R4=H2N, R5=Cl, R6=I), N7-((1'R,2'S,3'R,4'S)-2',3'-dihydroxy-4'-amino-cyclopentyl)-4-chloro-5-iodo-pyrrolopyrimidine] | 0.035 nM

Second part, the compound after the results:

IC50 | SMILES
3 nM | O[C@@H]1[C@H](O)[C@@H](O)C[C@H]1n1cc(-c2ccccc2)c2c(Nc3ccccc3)ncnc21 [drawing 13 (R5=NHPh, R6=Ph), N7-((1'R,2'S,3'R,4'S)-2',3',4'-trihydroxycyclopentyl)-4-(phenyl)amino-5-phenyl-pyrrolopyrimidine]
0.08 nM | Nc1ncnc2c1c(I)cn2[C@@H]1C[C@H](N)[C@@H](O)[C@H]1O [drawing 14 (R4=H2N, R5=NH2, R6=I), N7-((1'R,2'S,3'R,4'S)-2',3'-dihydroxy-4'-amino-cyclopentyl)-4-amino-5-iodo-pyrrolopyrimidine]
90 nM | O[C@@H]1[C@H](O)[C@@H](O)C[C@H]1n1cc(Cl)c2c(Cl)ncnc21 [drawing 13 (R5=Cl, R6=Cl), N7-((1'R,2'S,3'R,4'S)-2',3',4'-trihydroxycyclopentyl)-4,5-dichloro-pyrrolopyrimidine]
100 nM | O[C@@H]1[C@H](O)[C@@H](O)C[C@H]1n1cc(I)c2c(Nc3ccccc3)ncnc21 [drawing 13 (R5=NHPh, R6=I), N7-((1'R,2'S,3'R,4'S)-2',3',4'-trihydroxycyclopentyl)-4-(phenyl)amino-5-iodo-pyrrolopyrimidine]
20 nM | CN(C)[C@H]1C[C@@H](n2cc(I)c3c(Cl)ncnc32)[C@H](O)[C@@H]1O [drawing 14 (R4=(CH3)2N, R5=Cl, R6=I), N7-((1'R,2'S,3'R,4'S)-2',3'-dihydroxy-4'-(dimethyl)amino-cyclopentyl)-4-chloro-5-iodo-pyrrolopyrimidine]
13 nM | Nc1ncnc2c1c(I)cn2[C@@H]1C[C@H](O)[C@@H](O)[C@H]1O [drawing 13 (R5=NH2, R6=I), N7-((1'R,2'S,3'R,4'S)-2',3',4'-trihydroxycyclopentyl)-4-amino-5-iodo-pyrrolopyrimidine]
300 nM | CN[C@H]1C[C@@H](n2cc(C)c3c(Cl)ncnc32)[C@H](O)[C@@H]1O [drawing 14 (R4=CH3NH, R5=Cl, R6=CH3), N7-((1'R,2'S,3'R,4'S)-2',3'-dihydroxy-4'-(methyl)amino-cyclopentyl)-4-chloro-5-methyl-pyrrolopyrimidine]
15 nM | O[C@@H]1[C@H](O)[C@@H](O)C[C@H]1n1cc(C#Cc2ccccc2)c2c(C#Cc3ccccc3)ncnc21 [drawing 13 (R5=PhCC, R6=PhCC), N7-((1'R,2'S,3'R,4'S)-2',3',4'-trihydroxycyclopentyl)-4,5-bis-phenylacetylenyl-pyrrolopyrimidine]
10 nM | O[C@@H]1[C@H](O)[C@@H](O)C[C@H]1n1cc(I)c2c(Cl)ncnc21 [drawing 13 (R5=Cl, R6=I), N7-((1'R,2'S,3'R,4'S)-2',3',4'-trihydroxycyclopentyl)-4-chloro-5-iodo-pyrrolopyrimidine]
230 nM | Nc1ncnc2c1c(C#Cc1ccccc1)cn2[C@@H]1C[C@H](O)[C@@H](O)[C@H]1O [drawing 13 (R5=NH2, R6=PhCC), N7-((1'R,2'S,3'R,4'S)-2',3',4'-trihydroxycyclopentyl)-4-amino-5-phenylacetylenyl-pyrrolopyrimidine]

Same assay, conditions: Table 1, in vitro, single structure

IC50 | SMILES
2.5 nM | N[C@@H]1C=C[C@H](n2cc(I)c3c(Cl)ncnc32)C1

Same assay, conditions: Table 2, in vitro

SMILES | IC50
CC(=O)O[C@@H]1[C@H](OC(C)=O)[C@@H](OC(C)=O)C[C@H]1n1cc(-c2ccccc2)c2c(Cl)ncnc21 [drawing 16 (R5=Cl, R6=Ph), N7-((1'R,2'S,3'R,4'S)-2',3',4'-triacetoxycyclopentyl)-4-chloro-5-phenyl-pyrrolopyrimidine] | > 100000 nM
CC(=O)O[C@@H]1[C@H](OC(C)=O)[C@@H](OC(C)=O)C[C@H]1n1cc(C#Cc2ccccc2)c2c(C#Cc3ccccc3)ncnc21 [drawing 16 (R5=PhCC, R6=PhCC), N7-((1'R,2'S,3'R,4'S)-2',3',4'-triacetoxycyclopentyl)-4,5-bis-phenylacetylenyl-pyrrolopyrimidine] | > 10000 nM
CC(=O)N[C@H]1C[C@@H](n2cc(I)c3c(Cl)ncnc32)[C@H](O)[C@@H]1O [drawing 18 (R5=Cl, R=CH3CO), N7-((1'R,2'S,3'R,4'S)-2',3'-dihydroxy-4'-(acetyl)amino-cyclopentyl)-4-chloro-5-iodo-pyrrolopyrimidine] | 350 nM
CC(=O)N[C@H]1C[C@@H](n2cc(I)c3c(N)ncnc32)[C@H](O)[C@@H]1O [drawing 18 (R5=NH2, R=CH3CO), N7-((1'R,2'S,3'R,4'S)-2',3'-dihydroxy-4'-(acetyl)amino-cyclopentyl)-4-amino-5-iodo-pyrrolopyrimidine] | 160 nM
CC(C)(C)OC(=O)N[C@H]1C[C@@H](n2cc(I)c3c(N)ncnc32)[C@H](O)[C@@H]1O [drawing 18 (R5=NH2, R=NHBoc), N7-((1'R,2'S,3'R,4'S)-2',3'-dihydroxy-4'-(t-butoxycarbonylamino)-cyclopentyl)-4-amino-5-iodo-pyrrolopyrimidine] | 150 nM
O=C(N[C@H]1C[C@@H](n2cc(I)c3c(O)ncnc32)[C@H](O)[C@@H]1O)C(F)(F)F [drawing 18 (R5=OH, R=CF3CO), N7-((1'R,2'S,3'R,4'S)-2',3'-dihydroxy-4'-(trifluoroacetyl)amino-cyclopentyl)-4-hydroxy-5-iodo-pyrrolopyrimidine] | 200 nM
CC(=O)N[C@H]1C[C@@H](n2cc(I)c3c(Cl)ncnc32)[C@@H]2OC(=O)O[C@@H]21 [drawing 21 (R=CH3CO, R5=Cl), N7-((1'R,2'S,3'R,4'S)-2',3'--O-(2"-oxo-1",3"-dioxalyl)-4'-(acetyl)amino-cyclopentyl)-4-chloro-5-iodo-pyrrolopyrimidine] | 6300 nM

Continued, values first:

IC50 | SMILES
5 nM | O=C(N[C@H]1C[C@@H](n2cc(I)c3c(Cl)ncnc32)[C@H](O)[C@@H]1O)c1cccnc1
> 10000 nM | CC(=O)N[C@H]1C[C@@H](n2cc(I)c3c(Cl)ncnc32)[C@H](OC(C)=O)[C@@H]1OC(C)=O [drawing 17 (R5=Cl)]
2.5 nM | N[C@H]1C[C@@H](n2cc(I)c3c(Cl)ncnc32)[C@@H]2OC(=O)O[C@@H]21 [drawing 21 (R=H, R5=Cl), N7-((1'R,2'S,3'R,4'S)-2',3'--O-(2"-oxo-1",3"-dioxalyl)-4'-amino-cyclopentyl)-4-chloro-5-iodo-pyrrolopyrimidine]
110 nM | O=C(N[C@H]1C[C@@H](n2cc(I)c3c(Cl)ncnc32)[C@H](O)[C@@H]1O)C(F)(F)F [drawing 18 (R5=Cl, R=CF3CO), N7-((1'R,2'S,3'R,4'S)-2',3'-dihydroxy-4'-(trifluoroacetyl)amino-cyclopentyl)-4-chloro-5-iodo-pyrrolopyrimidine]
4000 nM | CC(=O)N[C@H]1C[C@@H](n2cc(I)c3c(O)ncnc32)[C@@H]2OC(=O)O[C@@H]21 [drawing 21 (R=CH3CO, R5=OH), N7-((1'R,2'S,3'R,4'S)-2',3'--O-(2"-oxo-1",3"-dioxalyl)-4'-(acetyl)amino-cyclopentyl)-4-hydroxy-5-iodo-pyrrolopyrimidine]

Tested on: adenosine kinase
Assay: not given
Details: literature; cited from earlier work

SMILES | reported to inhibit adenosine kinase (in words)
NC[C@H]1O[C@@H](n2cnc3c(N)ncnc32)[C@H](O)[C@@H]1O [5'-amino,5'-deoxyadenosine] | most potent
